Converted amounts (≈) assume the structure as drawn. Read-outs that look alike come from different tables or passages of the source. *1 amine or outer side, *2 acyl side, *3 side chain or, on linkers, in order; H or OH if unused. Where a SMILES comes first, the peptide text is derived from it. [ ]: non-standard residue; d: D form. X18 = CCCCCC[C@@H](OCCN[*:1])[C@@H](Cc1ccc(C)cc1)C(=O)[*:2]; X23 = CCCCCCCCCC[C@@H](OCCN[*:1])[C@@H](C)C(=O)[*:2]; aIle = CC[C@@H](C)[C@H](N)C(=O)O; NMeL = CN[C@@H](CC(C)C)C(=O)O; Dap = NC[C@H](N)C(=O)O
System: Escherichia coli (E. coli) strain CFT073 ATCC 700928
Assay type: cell-based
In short: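 Broth microdilution MIC per CLSI M07-A8 in cation-adjusted Mueller Hinton II broth with 0.002% Tween-80. Ten-point 2-fold series topped at 64, 4, 0.5 or 0.13 μg/mL depending on protocol. Final inoculum OD600 0.0005, incubated 22 h at 35 °C.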

| Compound | MIC (ATCC 700928, 22 h) | MIC (E. coli CFT073 ATCC 700928, Mueller Hinton II cation adjusted Broth with 0.002% v/v Tween-80, 35° C. for 22 hours, lowest concentration that completely prevented bacterial growth) |
| --- | --- | --- |
| CCCCCC[C@H]1OC(=O)CNC(=O)[C@H]([C@H](C)O)NC(=O)[C@H](CN)NC(=O)[C@H](C2CCCCC2)NC(=O)[C@H](CC(C)C)N(C)C(=O)[C@@H]1CCc1ccc(C)cc1 [Example 97, (6S,9S,12S,15S,18R,19R)-9-(aminomethyl)-12-cyclohexyl-19-hexyl-15-isobutyl-16-methyl-18-[2-(p-tolyl)ethyl]-6-[(1S)-1-hydroxyethyl]-1-oxa-4,7,10,13,16-pentazacyclononadecane-2,5,8,11,14,17-hexone] | 3.7 µM (≈ 2.9 µg/mL) | – |
| CCCCCC[C@H]1OC(=O)CNC(=O)[C@H]([C@H](C)O)NC(=O)[C@H](CN)NC(=O)[C@H](c2ccccc2)NC(=O)[C@H](CC(C)C)N(C)C(=O)[C@@H]1C [Example 98, (6S,9S,12S,15S,18R,19R)-9-(aminomethyl)-19-hexyl-15-isobutyl-16,18-dimethyl-12-phenyl-6-[(1S)-1-hydroxyethyl]-1-oxa-4,7,10,13,16-pentazacyclononadecane-2,5,8,11,14,17-hexone] | 71 µM (≈ 47.9 µg/mL) | – |
| CCCCCCCCCC[C@H]1OCCNC(=O)[C@H](CO)NC(=O)[C@H](CN)NC(=O)[C@H]([C@H](C)CC)NC(=O)[C@H](CC(C)C)N(C)C(=O)[C@@H]1C [Example 99, (6S,9S,12S,15S,18R,19R)-9-(aminomethyl)-19-decyl-6-(hydroxymethyl)-15-isobutyl-16,18-dimethyl-12-[(1R)-1-methylpropyl]-1-oxa-4,7,10,13,16-pentazacyclononadecane-5,8,11,14,17-pentone] (cyclo([Dap]S[X23][NMeL][aIle])) | 17 µM (≈ 11.6 µg/mL) | – |
| CCCCCC[C@H]1OC(=O)CNC(=O)[C@H]([C@H](C)O)NC(=O)[C@H]([C@H](C)O)NC(=O)[C@H]([C@H](C)CC)NC(=O)[C@H](CC(C)C)N(C)C(=O)[C@@H]1C [Example 100, (6S,9S,12S,15S,18R,19R)-19-hexyl-15-isobutyl-16,18-dimethyl-6,9-bis[(1S)-1-hydroxyethyl]-12-[(1R)-1-methylpropyl]-1-oxa-4,7,10,13,16-pentazacyclononadecane-2,5,8,11,14,17-hexone] | 35 µM (≈ 23.4 µg/mL) | – |
| CCCCCC[C@H]1OC(=O)CNC(=O)[C@H]([C@H](C)O)NC(=O)[C@H](CN)NC(=O)[C@H](C2CCCCC2)NC(=O)[C@H](CCC)N(C)C(=O)[C@@H]1C [Example 101, (6S,9S,12S,15S,18R,19R)-9-(aminomethyl)-12-cyclohexyl-19-hexyl-16,18-dimethyl-15-propyl-6-[(1S)-1-hydroxyethyl]-1-oxa-4,7,10,13,16-pentazacyclononadecane-2,5,8,11,14,17-hexone] | 4.1 µM (≈ 2.73 µg/mL) | – |
| CCCCCC[C@H]1OC(=O)CNC(=O)[C@H]([C@@H](O)CO)NC(=O)[C@H](CN)NC(=O)[C@H](C2CCCCC2)NC(=O)[C@H](CC(C)C)N(C)C(=O)[C@@H]1C [Example 102, (6S,9S,12S,15S,18R,19R)-9-(aminomethyl)-12-cyclohexyl-19-hexyl-15-isobutyl-16,18-dimethyl-6-[(1R)-1,2-dihydroxyethyl]-1-oxa-4,7,10,13,16-pentazacyclononadecane-2,5,8,11,14,17-hexone] | 3.1 µM (≈ 2.16 µg/mL) | – |
| CCCC(C)(C)CC[C@H]1OC(=O)CNC(=O)[C@H]([C@H](C)O)NC(=O)[C@H](CN)NC(=O)[C@H]([C@H](C)CC)NC(=O)[C@H](CC(C)C)N(C)C(=O)[C@@H]1C [Example 103, (6S,9S,12S,15S,18R,19R)-9-(aminomethyl)-19-(3,3-dimethylhexyl)-15-isobutyl-16,18-dimethyl-6-[(1S)-1-hydroxyethyl]-12-[(1R)-1-methylpropyl]-1-oxa-4,7,10,13,16-pentazacyclononadecane-2,5,8,11,14,17-hexone] | 3.1 µM (≈ 2.12 µg/mL) | – |
| CCCCCC[C@H]1OC(=O)CNC(=O)[C@H]([C@H](C)O)NC(=O)[C@H](CN)NC(=O)[C@H]([C@H](C)CC)NC(=O)[C@H](CC2CCCC2)N(C)C(=O)[C@@H]1C [Example 104, (6S,9S,12S,15S,18R,19R)-9-(aminomethyl)-15-(cyclopentylmethyl)-19-hexyl-16,18-dimethyl-6-[(1S)-1-hydroxyethyl]-12-[(1R)-1-methylpropyl]-1-oxa-4,7,10,13,16-pentazacyclononadecane-2,5,8,11,14,17-hexone] | 6.3 µM (≈ 4.29 µg/mL) | – |
| C=CCCCC[C@H]1OC(=O)CNC(=O)[C@H]([C@H](C)O)NC(=O)[C@H](CN)NC(=O)[C@H](C2CCCCC2)NC(=O)[C@H](CC(C)C)N(C)C(=O)[C@@H]1C [Example 105, (6S,9S,12S,15S,18R,19R)-9-(aminomethyl)-12-cyclohexyl-19-hex-5-enyl-15-isobutyl-16,18-dimethyl-6-[(1S)-1-hydroxyethyl]-1-oxa-4,7,10,13,16-pentazacyclononadecane-2,5,8,11,14,17-hexone] | – | 5.2 µM (≈ 3.53 µg/mL) |
| CCCCCC[C@H]1OC(=O)CNC(=O)[C@H]([C@H](C)O)NC(=O)[C@H](CN)NC(=O)[C@H](C2CCCCC2)NC(=O)[C@H](CC(C)C)N(C)C(=O)[C@@H]1CCOc1ccc(C)cc1 [Example 106, (6S,9S,12S,15S,18R,19R)-9-(aminomethyl)-12-cyclohexyl-19-hexyl-15-isobutyl-16-methyl-18-[2-(4-methylphenoxy)ethyl]-6-[(1S)-1-hydroxyethyl]-1-oxa-4,7,10,13,16-pentazacyclononadecane-2,5,8,11,14,17-hexone] | 6.3 µM (≈ 5.05 µg/mL) | – |
| CC[C@@H](C)[C@@H]1NC(=O)[C@H](CC(C)C)N(C)C(=O)[C@H](C)[C@@H](CCCCCC(F)(F)F)OC(=O)CNC(=O)[C@H]([C@H](C)O)NC(=O)[C@H](CN)NC1=O [Example 107, (6S,9S,12S,15S,18R,19R)-9-(aminomethyl)-15-isobutyl-16,18-dimethyl-6-[(1S)-1-hydroxyethyl]-12-[(1R)-1-methylpropyl]-19-(6,6,6-trifluorohexyl)-1-oxa-4,7,10,13,16-pentazacyclononadecane-2,5,8,11,14,17-hexone] | 25 µM (≈ 17.7 µg/mL) | – |
| CCCCCC[C@H]1OC(=O)CNC(=O)[C@H]([C@H](C)O)NC(=O)[C@H](CN)NC(=O)[C@H](C2CCCCC2)NC(=O)[C@H](CC(C)C)N(C)C(=O)[C@@H]1CCc1ccc(-c2ccccc2)cc1 [Example 108, (6S,9S,12S,15S,18R,19R)-9-(aminomethyl)-12-cyclohexyl-19-hexyl-15-isobutyl-16-methyl-18-[2-(4-phenylphenyl)ethyl]-6-[(1S)-1-hydroxyethyl]-1-oxa-4,7,10,13,16-pentazacyclononadecane-2,5,8,11,14,17-hexone] | 35 µM (≈ 29.6 µg/mL) | – |
| CCCC[C@H]1OC(=O)CNC(=O)[C@H]([C@H](C)O)NC(=O)[C@H](CN)NC(=O)[C@H](C2CCCCC2)NC(=O)[C@H](CC(C)C)N(C)C(=O)[C@@H]1Cc1ccc(C)cc1 [Example 109, (6S,9S,12S,15S,18R,19R)-9-(aminomethyl)-19-butyl-12-cyclohexyl-15-isobutyl-16-methyl-18-(p-tolylmethyl)-6-[(1S)-1-hydroxyethyl]-1-oxa-4,7,10,13,16-pentazacyclononadecane-2,5,8,11,14,17-hexone] | 25 µM (≈ 18.6 µg/mL) | – |
| CCCCCC[C@H]1OCCNC(=O)[C@H](CO)NC(=O)[C@H](CN)NC(=O)[C@H]([C@H](C)CC)NC(=O)[C@H](CC(C)C)N(C)C(=O)[C@@H]1Cc1ccc(C)cc1 [Example 110, (6S,9S,12S,15S,18R,19R)-9-(aminomethyl)-19-hexyl-6-(hydroxymethyl)-15-isobutyl-16-methyl-18-(p-tolylmethyl)-12-[(1R)-1-methylpropyl]-1-oxa-4,7,10,13,16-pentazacyclononadecane-5,8,11,14,17-pentone] (cyclo([Dap]S[X18][NMeL][aIle])) | 25 µM (≈ 17.9 µg/mL) | – |

From patent US11279735B2, “Cyclic peptide antibiotics” (priority 2017, dated 2022)
